Assay results from DBAASP.
In brackets after ≈: the same amount, converted by molar mass. One block for each compound: values may come before it.

Assays:
Assay in all cases: ≥ marks a high value that may be exact or a test limit, other limits are often not marked, values filed in µg/mL are converted to µM
[1] = test system: Bacillus megaterium ATCC 19213
[2] = test system: Bacillus subtilis NBRC 3513
[3] = test system: Enterococcus faecalis NBRC 3989
[4] = test system: Escherichia coli NBRC 12734
[5] = test system: Klebsiella pneumoniae NBRC 3317
[6] = test system: Pseudomonas aeruginosa NBRC 3080
[7] = test system: Salmonella typhimurium NBRC 12529
[8] = test system: Serratia marcescens NBRC 3046
[9] = test system: Staphylococcus aureus NBRC 12732
[10] = test system: Staphylococcus epidermidis NBRC 12933
[11] = test system: Aeromonas caviae IP67-16T
[12] = test system: Aspergillus fumigatus IP1025-70
[13] = test system: Aspergillus niger IP218-53
[14] = test system: Candida albicans IP884-65
[15] = test system: Cryptococcus neoformans IP960-67
[16] = test system: Enterococcus faecalis IP103214
Escherichia coli IP76-24 = test system: Escherichia coli IP76-24
[17] = test system: Nocardia brasiliensis IP16-80
[18] = test system: Saccharomyces cerevisiae IP118079
[19] = test system: Staphylococcus aureus IP76-25
[20] = test system: Trichophyton simii IP1063-74
[21] = test system: Bacillus subtilis PCI 219
[22] = test system: Escherichia coli NIHJ JC-2
[23] = test system: Pseudomonas aeruginosa U-31
[24] = test system: Staphylococcus aureus FDA 209P
[25] = test system: Aspergillus fumigatus IOC 4526
[26] = test system: Candida albicans ATCC 36802
[27] = test system: Candida albicans IOC 4558
[28] = test system: Candida glabrata IOC 4565
Candida krusei IOC 4559 = test system: Candida krusei IOC 4559
[29] = test system: Candida parapsilosis IOC 4564
[30] = test system: Candida tropicalis IOC 4560
[31] = test system: Cryptococcus neoformans ATCC 90112
[32] = test system: Cryptococcus neoformans IOC 4528
Escherichia coli SBS 363 = test system: Escherichia coli SBS 363
Micrococcus luteus A270 = test system: Micrococcus luteus A270
[33] = test system: Pseudomonas aeruginosa ATCC 27853
[34] = test system: Staphylococcus aureus ATCC 29213
[35] = test system: Trichophyton rubrum IOC 4527
[36] = test system: Trichosporon sp. IOC 4569
[37] = test system: Micrococcus luteus NBRC 12708
Carnobacterium mobile = test system: Carnobacterium mobile
Fusarium oxysporum = test system: Fusarium oxysporum

SMILES: CC[C@H](C)[C@H](NC(=O)[C@H](C)N)C(=O)N[C@@H](Cc1ccccc1)C(=O)N[C@H](C(=O)N[C@@H](Cc1ccccc1)C(=O)N[C@H](C(=O)N[C@@H](CCCN=C(N)N)C(=O)N[C@@H](Cc1c[nH]c2ccccc12)C(=O)N[C@@H](CC(C)C)C(=O)N[C@@H](CC(C)C)C(=O)N[C@@H](CCCCN)C(=O)N[C@@H](CC(C)C)C(=O)NCC(=O)N[C@@H](Cc1cnc[nH]1)C(=O)N[C@@H](Cc1cnc[nH]1)C(=O)NCC(=O)N[C@@H](CCCN=C(N)N)C(=O)N[C@@H](C)C(=O)N1CCC[C@H]1C(=O)N1CCC[C@H]1C(=O)O)[C@@H](C)CC)[C@@H](C)CC [AIFIFIRWLLKLGHHGRAPP]
MIC [1]: 4 µM (≈ 9.37 µg/mL)
MIC [2]: 8 µM (≈ 18.7 µg/mL)
MIC [3]: ≥ 128 µM
MIC [4]: ≥ 128 µM
MIC [5]: ≥ 128 µM
MIC [6]: ≥ 128 µM
MIC [7]: ≥ 128 µM
MIC [8]: ≥ 128 µM
MIC [9]: 2 µM (≈ 4.69 µg/mL)
MIC [10]: 16 µM (≈ 37.5 µg/mL)

SMILES: CC[C@H](C)[C@H](NC(=O)CNC(=O)[C@H](CCCCN)NC(=O)[C@H](CC(C)C)NC(=O)[C@H](CCSC)NC(=O)[C@H](CC(N)=O)NC(=O)[C@H](CCCCN)NC(=O)[C@H](Cc1c[nH]c2ccccc12)NC(=O)[C@H](CC(C)C)NC(=O)[C@H](C)N)C(=O)NCC(=O)N[C@@H](CCCCN)C(=O)N[C@@H](CC(C)C)C(=O)N[C@@H](C)C(=O)NCC(N)=O [ALWKNMLKGIGKLAG]
MIC [11]: 3 µM (≈ 4.8 µg/mL)
MIC [12]: 20 µM (≈ 32 µg/mL)
MIC [13]: ≥ 40 µM
MIC [14]: 20 µM (≈ 32 µg/mL)
MIC [15]: 3 µM (≈ 4.8 µg/mL)
MIC [16]: 3 µM (≈ 4.8 µg/mL)
MIC (Escherichia coli IP76-24): 3 µM (≈ 4.8 µg/mL)
MIC [17]: ≥ 150 µM
MIC [18]: 10 µM (≈ 16 µg/mL)
MIC [19]: ≥ 150 µM
MIC [20]: 30 µM (≈ 48 µg/mL)

SMILES: CSCC[C@H](NC(=O)[C@@H](N)CCCCN)C(=O)N[C@@H](CC(=O)O)C(=O)N[C@@H](CO)C(=O)N[C@@H](CCCN=C(N)N)C(=O)N[C@@H](Cc1c[nH]c2ccccc12)C(=O)N[C@@H](CCCN=C(N)N)C(=O)N[C@@H](Cc1c[nH]c2ccccc12)C(=O)N[C@@H](CCCCN)C(=O)N[C@@H](CO)C(=O)N[C@@H](CO)C(=O)N[C@@H](CCCCN)C(=O)N[C@@H](CCCCN)C(=O)O [KMDSRWRWKSSKK]
MIC [25]: ≥ 58 µM
MIC [26]: ≥ 58 µM
MIC [27]: ≥ 46.4 µM
MIC [28]: ≥ 46.4 µM
MIC (Candida krusei IOC 4559): ≥ 32.8 µM
MIC [29]: ≥ 46.4 µM
MIC [30]: ≥ 46.4 µM
MIC [31]: 4.92 µM (≈ 8.49 µg/mL)
MIC [32]: 4.92 µM (≈ 8.49 µg/mL)
MIC (Escherichia coli SBS 363): ≥ 46.4 µM
MIC (Micrococcus luteus A270): 4.92 µM (≈ 8.49 µg/mL)
MIC [33]: 16.4 µM (≈ 28.3 µg/mL)
MIC [34]: > 23.2 µM
MIC [35]: ≥ 58 µM
MIC [36]: ≥ 32.8 µM

SMILES: CC[C@H](C)[C@@H]1NC(=O)[C@H](C)NC(=O)[C@H](CC(C)C)NC(=O)[C@@H]2CSSC[C@@H](C(=O)N[C@@H](CCCN=C(N)N)C(=O)N[C@@H](CCCN=C(N)N)C(=O)O)NC(=O)[C@H](C(C)C)NC(=O)[C@@H]3CSSC[C@H](NC(=O)[C@H](CC(C)C)NC(=O)[C@H](CO)NC(=O)[C@H](Cc4cnc[nH]4)NC(=O)[C@H](CC(N)=O)NC(=O)[C@H](C)NC(=O)[C@H](C)NC(=O)[C@H](Cc4ccccc4)NC(=O)CNC(=O)[C@H](CCCCN)NC(=O)[C@H](C)NC(=O)[C@H](CCC(=O)O)NC(=O)[C@H](Cc4ccccc4)NC(=O)[C@H](CO)NC(=O)[C@H](CC(C)C)NC(=O)[C@H](CC(C)C)NC(=O)[C@H](CC(=O)O)NC(=O)[C@@H](NC(=O)[C@@H](NC(=O)[C@@H](N)CC(C)C)[C@@H](C)O)CSSC[C@H](NC(=O)[C@H](C)NC(=O)CNC(=O)CNC(=O)[C@H](CCCCN)NC(=O)[C@H](CCCN=C(N)N)NC(=O)CNC1=O)C(=O)N[C@@H](CCC(N)=O)C(=O)N[C@@H](CC(N)=O)C(=O)NCC(=O)N[C@@H](C(C)C)C(=O)N3)C(=O)N[C@@H](C)C(=O)N[C@@H](C)C(=O)N[C@@H](Cc1cnc[nH]1)C(=O)N2 [LTCDLLSFEAKGFAANHSLCAAHCLAIGRKGGACQNGVCVCRR]
MIC [37]: 1.12 µM
MIC [9]: 0.112 µM

More lines, now with the values ahead:

MIC [21]: ≥ 44.8 µM
MIC [22]: ≥ 44.8 µM
MIC [23]: ≥ 44.8 µM
MIC [24]: ≥ 44.8 µM
SMILES: CC(C)C[C@H](NC(=O)[C@H](CC(C)C)NC(=O)[C@H](CCCCN)NC(=O)[C@H](CC(C)C)NC(=O)[C@H](CC(C)C)NC(=O)[C@H](CCCCN)NC(=O)[C@H](CCCCN)NC(=O)[C@H](Cc1c[nH]c2ccccc12)NC(=O)[C@H](CC(C)C)NC(=O)[C@H](CCCCN)NC(=O)[C@H](CC(C)C)NC(=O)[C@H](CC(C)C)NC(=O)[C@H](CC(C)C)NC(=O)[C@H](CCCCN)NC(=O)[C@H](CC(C)C)NC(=O)[C@H](CC(C)C)NC(=O)[C@@H](N)CCCCN)C(=O)N[C@@H](CCCCN)C(=O)O [KLLKLLLKLWKKLLKLLK]

MIC (Carnobacterium mobile): 0.0025 µM (≈ 0.00534 µg/mL)
MIC (Fusarium oxysporum): 0.1 µM (≈ 0.214 µg/mL)
SMILES: CSCC[C@H](N)C(=O)N[C@@H](C)C(=O)N[C@@H](C)C(=O)N[C@@H](CCCN=C(N)N)C(=O)N[C@@H](C)C(=O)N[C@@H](C)C(=O)N[C@@H](CCCN=C(N)N)C(=O)N[C@@H](CC(C)C)C(=O)N[C@@H](C)C(=O)N[C@@H](C)C(=O)N[C@@H](CCCN=C(N)N)C(=O)N[C@@H](CC(C)C)C(=O)N[C@@H](C)C(=O)N[C@@H](CCCN=C(N)N)C(=O)N[C@@H](CC(C)C)C(=O)N[C@@H](C)C(=O)N[C@@H](CC(C)C)C(=O)N[C@@H](CCCN=C(N)N)C(=O)N[C@@H](C)C(=O)N[C@@H](CC(C)C)C(=O)O [MAARAARLAARLARLALRAL]
